The record followed here is US20050032873A1, “3-Amino chroman and 2-amino tetralin derivatives” (Wyeth, priority 2003, published 2005).

In assay [1] the target is T1, 5-HT1A receptor (Homo sapiens, UniProt P08908).
T1 sequence (P08908 1-422): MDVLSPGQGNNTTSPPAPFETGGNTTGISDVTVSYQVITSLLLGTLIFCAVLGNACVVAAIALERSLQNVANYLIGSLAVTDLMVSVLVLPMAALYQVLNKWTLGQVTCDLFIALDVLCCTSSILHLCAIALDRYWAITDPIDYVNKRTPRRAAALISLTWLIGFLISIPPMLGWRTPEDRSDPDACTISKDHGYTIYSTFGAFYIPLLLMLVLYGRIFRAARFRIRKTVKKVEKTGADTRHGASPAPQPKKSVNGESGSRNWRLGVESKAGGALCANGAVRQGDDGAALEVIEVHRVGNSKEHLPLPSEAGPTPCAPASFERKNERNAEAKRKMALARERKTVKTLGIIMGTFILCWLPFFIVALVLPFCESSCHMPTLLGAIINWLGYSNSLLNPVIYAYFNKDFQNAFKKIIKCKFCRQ
As to the kind of experiment: 5-HT1A receptor affinity: displacement of [3H] 8-OH-DPAT. The format is binding. Details: expressed in transfected cells. As to conditions: displacement of [3H] 8-OH-DPAT; CHO cells stably transfected with human 5-HT1A receptors; read-out: 5-HT1A Receptor Affinity Ki.

Assay [2] addresses T1, 5-HT1A receptor. As to the kind of experiment: cAMP accumulation assay, 5-HT1A function. The format is cell-based. As to conditions: for EC50: cells marked EC50 (agonist); for Emax: in brackets after EC50 or IC50, read-out: 5-HT1A Function cAMP (Emax); for IC50: cells marked IC50 (antagonist), read-out: 5-HT1A Function cAMP IC50.
Assay [3] concerns the target T2, cloned human 5-HT1A receptors (Homo sapiens, UniProt P08908).
T2 construct: expressed in transfected cells
T2 sequence (P08908 1-422): T1 sequence (P08908 1-422)
As to the kind of experiment: 35S-GTPγS binding assay, 5-HT1A function. The assay is classed as biochemical. As to conditions: for EC50: agonist potency; for IC50: antagonist potency, reversal of 8-OH-DPAT, read-out: 5-HT1A Function GTPγS IC50.

Another assay deals with T3, serotonin transporter (Rattus norvegicus, UniProt P31652).
T3 construct: displace ^3H-paroxetine from male rat cortical membranes; from tissue; host or cells: male rat cortical membranes
As to the kind of experiment: 5-HT transporter affinity: displacement of 3H-paroxetine from male rat cortical membranes. The assay is classed as binding. As to conditions: displacement of 3H-paroxetine; male rat cortical membranes; read-out: 5-HT Transporter Affinity Ki.

Setting [4] is: maximum stimulatory effect, in brackets after EC50, read-out: 5-HT1A Function GTPγS (Emax).
The mark [5] stands for this setting: maximum inhibitory effect, in brackets after IC50, read-out: 5-HT1A Function GTPγS (Imax).

Read-outs that look alike come from different tables or passages of the source.

T3 sequence (P31652 whole entry): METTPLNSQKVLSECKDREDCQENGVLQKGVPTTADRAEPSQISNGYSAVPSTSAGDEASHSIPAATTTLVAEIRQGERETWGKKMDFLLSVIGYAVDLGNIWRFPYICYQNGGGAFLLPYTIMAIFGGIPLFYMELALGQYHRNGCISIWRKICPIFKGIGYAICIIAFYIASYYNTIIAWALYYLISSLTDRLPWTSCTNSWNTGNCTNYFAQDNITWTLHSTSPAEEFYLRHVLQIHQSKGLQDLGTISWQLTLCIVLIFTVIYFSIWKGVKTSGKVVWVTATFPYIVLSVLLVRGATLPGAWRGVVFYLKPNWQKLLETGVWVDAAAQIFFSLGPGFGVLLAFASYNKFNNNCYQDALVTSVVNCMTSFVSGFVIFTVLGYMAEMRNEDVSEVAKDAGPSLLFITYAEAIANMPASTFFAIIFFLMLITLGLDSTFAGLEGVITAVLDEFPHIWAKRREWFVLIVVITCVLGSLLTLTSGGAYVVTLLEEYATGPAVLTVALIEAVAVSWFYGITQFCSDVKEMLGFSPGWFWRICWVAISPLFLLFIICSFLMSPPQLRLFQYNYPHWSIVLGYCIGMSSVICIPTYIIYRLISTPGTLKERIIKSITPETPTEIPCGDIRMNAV

Regarding `COC(=O)c1cccc2c1CC(NCCCc1c[nH]c3c(F)cc(F)cc13)CO2` (centres unmarked) [Compound 135, Methyl 3-{[3-(5,7-difluoro-1H-indol-3-yl)propyl]amino}chromane-5-carboxylate], the inhibitory constant (Ki) at 5-HT1A receptor [1] amounted to 19.9 nM; on serotonin transporter, 58 nM. The EC50 amounted to 274 nM at 5-HT1A receptor [2] and 441 nM in assay [3]. The Emax at 5-HT1A receptor [2] worked out at 98%; in assay [3] (setting [4]), 100%.
`COC(=O)c1cccc2c1CC(N(CCCc1c[nH]c3c(F)cc(F)cc13)C1CCC1)CO2` (centres unmarked) [Compound 136, Methyl 3-{cyclobutyl[3-(5,7-difluoro-1H-indol-3-yl)propyl]amino}chromane-5-carboxylate]: the results for the inhibitory constant (Ki) on 5-HT1A receptor [1] and at serotonin transporter were 27.6 nM and 203 nM, respectively. Besides, the results for the EC50 (on 5-HT1A receptor [2]; in assay [3]) were 635 nM and 1330 nM, respectively. Moreover, the Emax on 5-HT1A receptor [2] is 89%; in assay [3] (setting [4]), 95%.
Turning to `O=C(NC1CCC1)c1cccc2c1CC(N(CCCc1c[nH]c3c(F)cc(F)cc13)C1CCC1)CO2` (centres unmarked) [Compound 143, N-cyclobutyl-3-{cyclobutyl[3-(5,7-difluoro-1H-indol-3-yl)propyl]amino}chromane-5-carboxamide], the Ki on 5-HT1A receptor [1] was 31.9 nM; on serotonin transporter, 4.4 nM. The concentration giving a half-maximal response (EC50) on 5-HT1A receptor [2] was 523 nM; in assay [3], 1390 nM. The Emax on 5-HT1A receptor [2] worked out at 91%; in assay [3] (setting [4]) it was 100%.
Consider `O=C(NCC1CC1)c1cccc2c1CC(N(CCCc1c[nH]c3c(F)cc(F)cc13)C1CCC1)CO2` (centres unmarked) [Compound 144, 3-{cyclobutyl[3-(5,7-difluoro-1H-indol-3-yl)propyl]amino}-N-(cyclopropylmethyl)chromane-5-carboxamide], for which the results for the Ki at 5-HT1A receptor [1] and at serotonin transporter were 169 nM and 5.5 nM, respectively. Further, the results for the EC50 (on 5-HT1A receptor [2]; in assay [3]) were 4990 nM and 7600 nM, respectively. The results for the Emax (at 5-HT1A receptor [2]; in assay [3] (setting [4])) were 100% and 73%, respectively.
For the molecule `CNC(=O)c1ccc(F)c2c1C[C@H](N(CCCCc1c[nH]c3ccc(F)cc13)C1CCC1)CO2` [Compound 145a, (3S)-3-{cyclobutyl[4-(5-fluoro-1H-indol-3-yl)butyl]amino}-8-fluoro-N-methylchromane-5-carboxamide], the Ki on 5-HT1A receptor [1] was 288 nM; at serotonin transporter, 16.1 nM. The figures for the IC50 (on 5-HT1A receptor [2]; in assay [3]) were 668 nM and 5470 nM, respectively. The Emax was determined as 0% on 5-HT1A receptor [2] and 100% in assay [3] (setting [5]).
With `CNC(=O)c1ccc(F)c2c1C[C@@H](N(CCCCc1c[nH]c3ccc(F)cc13)C1CCC1)CO2` [Compound 145b, (3R)-3-{cyclobutyl[4-(5-fluoro-1H-indol-3-yl)butyl]amino}-8-fluoro-N-methylchromane-5-carboxamide], the inhibitory constant (Ki) on 5-HT1A receptor [1] was 6.29 nM; at serotonin transporter, 8.63 nM. Besides, the IC50 on 5-HT1A receptor [2] was 848 nM; in assay [3], 1270 nM. For the same molecule, the Emax on 5-HT1A receptor [2] turned out to be 0%; in assay [3] (setting [5]), 100%.
As to `NC(=O)c1cccc2c1CC(N(CCCc1c[nH]c3ccc(F)cc13)CC1CC1)CO2` (centres unmarked) [Compound 148, 3-{(cyclopropylmethyl)[3-(5-fluoro-1H-indol-3-yl)propyl]amino}chromane-5-carboxamide], the inhibition constant Ki on 5-HT1A receptor [1] was found to be 0.33 nM; on serotonin transporter it was 3.25 nM. In addition, the values for the 50% effective concentration (EC50) (at 5-HT1A receptor [2]; in assay [3]) were 0.54 nM and 8.04 nM, respectively. Further, the results for the Emax (on 5-HT1A receptor [2]; in assay [3] (setting [4])) were 100% and 81%, respectively.
Turning to `CCN(CCCc1c[nH]c2ccc(F)cc12)C1COc2cccc(C(N)=O)c2C1` (centres unmarked) [Compound 149, 3-{ethyl[3-(5-fluoro-1H-indol-3-yl)propyl]amino}chromane-5-carboxamide], the figures for the Ki on 5-HT1A receptor [1] and on serotonin transporter were 2.72 nM and 9.25 nM, respectively. Further, the concentration giving a half-maximal response (EC50) on 5-HT1A receptor [2] is 3.65 nM; in assay [3], 44.9 nM. Moreover, the Emax amounted to 70% on 5-HT1A receptor [2] and 79% in assay [3] (setting [4]).
In the case of `CCCN(CCCc1c[nH]c2ccc(F)cc12)C1COc2cccc(C(N)=O)c2C1` (centres unmarked) [Compound 150, 3-[[3-(5-fluoro-1H-indol-3-yl)propyl](propyl)amino]chromane-5-carboxamide], the Ki came to 0.93 nM at 5-HT1A receptor [1] and 18.6 nM at serotonin transporter. In addition, the EC50 on 5-HT1A receptor [2] came to 1.23 nM; in assay [3], 13 nM. Besides, the Emax at 5-HT1A receptor [2] is 100%; in assay [3] (setting [4]), 74%.
As for `C[C@H](CCN(C1CCC1)[C@H]1COc2c(F)ccc(C(N)=O)c2C1)c1c[nH]c2ccc(F)cc12` [Compound 152a, (3R)-3-{cyclobutyl[(3R)-3-(5-fluoro-1H-indol-3-yl)butyl]amino}-8-fluorochromane-5-carboxamide], the inhibition constant Ki on 5-HT1A receptor [1] was found to be 20 nM; on serotonin transporter, 181 nM. The figures for the IC50 (at 5-HT1A receptor [2]; in assay [3]) were 544 nM and 2200 nM, respectively. Also, the Emax at 5-HT1A receptor [2] came out at 0%; in assay [3] (setting [5]), 100%.
`C[C@H](CCN(C1CCC1)[C@@H]1COc2c(F)ccc(C(N)=O)c2C1)c1c[nH]c2ccc(F)cc12` [Compound 152b, (3S)-3-{cyclobutyl[(3R)-3-(5-fluoro-1H-indol-3-yl)butyl]amino}-8-fluorochromane-5-carboxamide]: the Ki was found to be 322 nM on 5-HT1A receptor [1] and 182 nM at serotonin transporter. In addition, the 50% inhibitory concentration (IC50) at 5-HT1A receptor [2] amounted to 727 nM; in assay [3], 5000 nM. The figures for the Emax (at 5-HT1A receptor [2]; in assay [3] (setting [5])) were 0% and 50%, respectively.
Take `C[C@@H](CCN(C1CCC1)[C@H]1COc2c(F)ccc(C(N)=O)c2C1)c1c[nH]c2ccc(F)cc12` [Compound 153a, (3R)-3-{cyclobutyl[(3S)-3-(5-fluoro-1H-indol-3-yl)butyl]amino}-8-fluorochromane-5-carboxamide]: the Ki stood at 20.2 nM at 5-HT1A receptor [1] and 61.5 nM at serotonin transporter. The 50% inhibitory concentration (IC50) at 5-HT1A receptor [2] turned out to be 727 nM; in assay [3], 3610 nM. For the same molecule, the Emax on 5-HT1A receptor [2] was found to be 0%; in assay [3] (setting [5]) it was 100%.
`C[C@@H](CCN(C1CCC1)[C@@H]1COc2c(F)ccc(C(N)=O)c2C1)c1c[nH]c2ccc(F)cc12` [Compound 153b, (3S)-3-{cyclobutyl[(3S)-3-(5-fluoro-1H-indol-3-yl)butyl]amino}-8-fluorochromane-5-carboxamide]: the Ki is 124 nM on 5-HT1A receptor [1] and 122 nM on serotonin transporter. For the same molecule, the IC50 turned out to be 166 nM on 5-HT1A receptor [2] and 1450 nM in assay [3]. For the same molecule, the Emax was found to be 0% at 5-HT1A receptor [2] and 64% in assay [3] (setting [5]).
With `CCN(CCc1coc2c(OC)cccc12)C1COc2c(F)ccc(C(N)=O)c2C1` (centres unmarked) [Compound 157, 3-{ethyl[2-(7-methoxy-1-benzofuran-3-yl)ethyl]amino}-8-fluorochromane-5-carboxamide], the Ki came to 83.8 nM on 5-HT1A receptor [1] and 768 nM at serotonin transporter. The Emax is 0% at 5-HT1A receptor [2] and 70% in assay [3] (setting [4]). The EC50 in assay [3] is 1200 nM.
The matching figures for `CCCN(CCc1coc2c(OC)cccc12)C1COc2c(F)ccc(C(N)=O)c2C1` (centres unmarked) [Compound 158, 8-fluoro-3-[[2-(7-methoxy-1-benzofuran-3-yl)ethyl](propyl)amino]chromane-5-carboxamide]: 232 nM, 120 nM, 0%, 59% and 10600 nM.
As to `COc1cccc2c(CCN(CC3CC3)C3COc4c(F)ccc(C(N)=O)c4C3)coc12` (centres unmarked) [Compound 160, 3-{(cyclopropylmethyl)[2-(7-methoxy-1-benzofuran-3-yl)ethyl]amino}-8-fluorochromane-5-carboxamide], the results for the inhibitory constant (Ki) at 5-HT1A receptor [1] and at serotonin transporter were 33.8 nM and 127 nM, respectively. In addition, the half-maximal inhibitory concentration (IC50) on 5-HT1A receptor [2] was determined as 948 nM. Besides, the values for the Emax (on 5-HT1A receptor [2]; in assay [3] (setting [4])) were 0% and 51%, respectively. The molecule further had a 50% effective concentration (EC50) in assay [3] of 1020 nM.
In the case of `CCN(CCCc1coc2c(OC)cccc12)C1COc2c(F)ccc(C(N)=O)c2C1` (centres unmarked) [Compound 162, 3-{ethyl[3-(7-methoxy-1-benzofuran-3-yl)propyl]amino}-8-fluorochromane-5-carboxamide], the figures for the inhibition constant Ki at 5-HT1A receptor [1] and on serotonin transporter were 2.09 nM and 61.5 nM, respectively. Moreover, the Emax came out at 0% on 5-HT1A receptor [2] and 87% in assay [3] (setting [4]). In assay [3], the EC50 was 45.8 nM.
In the same order, the values of `CCCN(CCCc1coc2c(OC)cccc12)C1COc2c(F)ccc(C(N)=O)c2C1` (centres unmarked) [Compound 163, 8-fluoro-3-[[3-(7-methoxy-1-benzofuran-3-yl)propyl](propyl)amino]chromane-5-carboxamide] are 0.74 nM, 539 nM, 0%, 52% and 4.56 nM.
